Publication PMC11048482 (Biomolecules, 2024)
Where two headings read alike, the source gives them in different places.

Target: T1, SP_0166 (Streptococcus pneumoniae, UniProt A0A0H2UNA7)
T1 construct: full length, 368 residues, 42,757 Da; pET-28a(+) BamHI/XhoI, C-terminal 6xHis tag kept; expressed in E. coli BL21(DE3)
Assay: LC-MS/MS of agmatine formed from arginine
Assay type: biochemical

T1 sequence (A0A0H2UNA7 entry or part of it): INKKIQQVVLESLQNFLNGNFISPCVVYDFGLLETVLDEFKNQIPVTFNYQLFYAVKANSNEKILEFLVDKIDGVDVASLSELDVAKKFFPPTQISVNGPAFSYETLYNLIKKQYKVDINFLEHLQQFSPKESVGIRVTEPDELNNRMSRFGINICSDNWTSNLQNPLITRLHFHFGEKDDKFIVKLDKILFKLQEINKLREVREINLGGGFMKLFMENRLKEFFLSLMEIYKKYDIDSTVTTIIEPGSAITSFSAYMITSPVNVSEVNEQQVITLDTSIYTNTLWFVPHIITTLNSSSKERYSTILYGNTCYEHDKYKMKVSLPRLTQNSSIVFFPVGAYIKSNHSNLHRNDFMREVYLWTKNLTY

| SMILES | IC50 (read-out: DFMA IC50) [mM] | IC50 (read-out: DFMO IC50) [mM] |
| --- | --- | --- |
| N=C(N)NCCCC(N)(C(=O)O)C(F)F (centres unmarked) [DFMA] | 0.0216 ± 0.0104 |  |
| NCCCC(N)(C(=O)O)C(F)F (centres unmarked) [DFMO] |  | 27 ± 4.5 |
